Patent US10239873B2, “7-azaindole or 4,7-diazaindole derivatives as IKKϵ epsilon and TBK1 inhibitor and pharmaceutical composition comprising same” (GREEN CROSS CORPORATION, priority 2015, dated 2019)

Molecular target: T1, TBK1 (Homo sapiens, UniProt Q9UHD2)
T1 construct: purchased Promega (Invitrogen is also named in the same bracket) V4158; PR8031B; V3991 (not assigned to the two kinases)
T1 sequence (Q9UHD2 1-729): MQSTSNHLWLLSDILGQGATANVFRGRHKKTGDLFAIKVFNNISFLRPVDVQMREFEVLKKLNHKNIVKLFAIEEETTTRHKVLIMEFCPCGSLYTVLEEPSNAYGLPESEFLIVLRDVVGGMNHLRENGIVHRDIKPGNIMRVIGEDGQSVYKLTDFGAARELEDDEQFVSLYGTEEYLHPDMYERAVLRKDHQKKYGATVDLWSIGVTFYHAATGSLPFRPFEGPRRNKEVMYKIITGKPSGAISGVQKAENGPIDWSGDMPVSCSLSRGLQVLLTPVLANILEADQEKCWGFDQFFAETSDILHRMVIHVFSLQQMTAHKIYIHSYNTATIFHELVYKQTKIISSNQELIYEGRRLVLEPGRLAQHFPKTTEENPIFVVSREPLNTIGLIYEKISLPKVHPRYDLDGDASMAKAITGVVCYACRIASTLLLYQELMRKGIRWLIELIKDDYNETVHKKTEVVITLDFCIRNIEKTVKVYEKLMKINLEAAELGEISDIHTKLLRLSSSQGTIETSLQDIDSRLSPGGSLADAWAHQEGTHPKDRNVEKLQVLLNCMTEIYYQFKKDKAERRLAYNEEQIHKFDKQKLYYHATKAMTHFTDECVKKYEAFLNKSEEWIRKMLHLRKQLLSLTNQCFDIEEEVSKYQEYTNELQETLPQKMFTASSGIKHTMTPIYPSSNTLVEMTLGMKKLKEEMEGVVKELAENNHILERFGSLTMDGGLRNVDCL
Experiment: ADP-Glo Kinase Assay, inhibition activity on TBK1
Assay type: biochemical
Experimental: Inhibition activities on IKKϵ and TBK1 were evaluated using the compounds of Examples 1 to 250.
The inhibition activities on IKKϵ and TBK1 were measured by a luminometer, IKKϵ/TBK1 Kinase Enzyme System (Promega, Ca# V4158; Invitrogen, PR8031B, Promega, Ca# V3991) and ADP-Glo Kinase Assay using ADP-Glo™ Kinase Analysis Kit (Promega, Ca# V9101) and a kinase reaction buffer [40 mM Tris(pH 7.5), 20 mM MgCl2, 0.1 mg/mL BSA] in accordance with the manufacturer's protocol.

Row | SMILES | IC50 [nM]
1 | CC1CN(C(=O)c2cccs2)CC=C1c1c[nH]c2ncc(-c3ccc(C(=O)N4CCOCC4)cc3)cc12 (stereo not shown) [Example 215, (4-(3-(3-methyl-1-(thiophene-2-carbonyl)-1,2,3,6-tetrahydropyridin-4-yl)-1H-pyrrolo[2,3-b]pyridin-5-yl)phenyl)(morpholino)methanone] | 12
2 | O=C(OC1CCCC1)N1CC=C(c2c[nH]c3ncc(-c4csc(CN5CCOCC5)c4)cc23)CC1 [Example 185, Cyclopentyl 4-(5-(5-(morpholinomethyl)thiophen-3-yl)-1H-pyrrolo[2,3-b]pyridin-3-yl)-5,6-dihydropyridine-1(2H)-carboxylate] | 81
3 | CNS(=O)(=O)c1ccc(-c2cnc3[nH]cc(C4=CCN(C(=O)c5cccs5)CC4)c3c2)cc1 [Example 200, N-methyl-4-(3-(1-(thiophene-2-carbonyl)-1,2,3,6-tetrahydropyridin-4-yl)-1H-pyrrolo[2,3-b]pyridin-5-yl)benzensulfonamide] | 45
4 | CS(=O)(=O)c1ccc(-c2cnc3[nH]cc(C4=CCN(C(=O)NC5CCOC5)CC4)c3c2)cc1 (stereo not shown) [Example 82, 4-(5-(4-(Methylsulfonyl)phenyl)-1H-pyrrolo[2,3-b]pyridin-3-yl)-N-(tetrahydrofuran-3-yl)-5,6-dihydropyridine-1(2H)-carboxamide] | 35
5 | NS(=O)(=O)c1cccc(-c2cnc3[nH]cc(C4=CCN(C(=O)c5cccs5)CC4)c3c2)c1 [Example 198, 3-(3-(1-(thiophene-2-carbonyl)-1,2,3,6-tetrahydropyridin-4-yl)-1H-pyrrolo[2,3-b]pyridin-5-yl)benzensulfonamide] | 15
6 | CCCOC(=O)N1CC=C(c2c[nH]c3ncccc23)CC1 [Example 137, Propyl 4-(1H-pyrrolo[2,3-b]pyridin-3-yl)-5,6-dihydropyridine-1(2H)-carboxylate] | 440
7 | Cc1ccc(C(=O)N2CC=C(c3c[nH]c4ncc(-c5ccc(S(C)(=O)=O)cc5)cc34)CC2)s1 [Example 211, (4-(5-(4-(methylsulfonyl)phenyl)-1H-pyrrolo[2,3-b]pyridin-3-yl)-5,6-dihydropyridin-1(2H)-yl)(5-methylthiophen-2-yl)methanone] | 3500
8 | CCC(CC)OC(=O)N1CC=C(c2c[nH]c3ncccc23)CC1 [Example 142, Pentan-3-yl 4-(1H-pyrrolo[2,3-b]pyridin-3-yl)-5,6-dihydropyridine-1(2H)-carboxylate] | 3000
9 | CC(C)(C)OC(=O)N1CC=C(c2c[nH]c3ncc(-c4ccc(CN5CCOCC5)s4)cc23)CC1 [Example 153, tert-Butyl 4-(5-(5-(morpholinomethyl)thiophen-2-yl)-1H-pyrrolo[2,3-b]pyridin-3-yl)-5,6-dihydropyridine-1(2H)-carboxylate] | 800
10 | O=C(c1cccs1)N1CC=C(c2c[nH]c3ncc(-c4ccc(S(=O)(=O)C5CC5)cc4)cc23)CC1 [Example 196, (4-(5-(4-(cyclopropylsulfonyl)phenyl)-1H-pyrrolo[2,3-b]pyridin-3-yl)-5,6-dihydropyridin-1(2H)-yl)(thiophen-2-yl)methanone] | 250
11 | COc1ccc(-c2cnc3[nH]cc(C4=CCN(C(=O)c5cccs5)CC4)c3c2)cc1F [Example 192, (4-(5-(3-Fluoro-4-methoxyphenyl)-1H-pyrrolo[2,3-b]pyridin-3-yl)-5,6-dihydropyridin-1(2H)-yl)(thiophen-2-yl)methanone] | 460
12 | CS(=O)(=O)Nc1cccc(-c2cnc3[nH]cc(C4=CCN(C(=O)c5cccs5)CC4)c3c2)c1 [Example 201, N-(3-(3-(1-(thiophene-2-carbonyl)-1,2,3,6-tetrahydropyridin-4-yl)-1H-pyrrolo[2,3-b]pyridin-5-yl)phenyl)methansulfonamide] | > 10000
13 | CC(C)(C)OC(=O)N1CC=C(c2c[nH]c3ncc(-c4cccc(S(N)(=O)=O)c4)cc23)CC1 [Example 151, tert-Butyl 4-(5-(3-sulfamoylphenyl)-1H-pyrrolo[2,3-b]pyridin-3-yl)-5,6-dihydropyridine-1(2H)-carboxylate] | 42
14 | COc1ccc(-c2cnc3[nH]cc(C4=CCN(C(=O)OC(C)C)CC4)c3c2)cc1OC [Example 147, Isopropyl 4-(5-(3,4-dimethoxyphenyl)-1H-pyrrolo[2,3-b]pyridin-3-yl)-5,6-dihydropyridine-1(2H)-carboxylate] | 110
15 | CN(C(=O)N1CC=C(c2c[nH]c3ncc(-c4ccc(S(N)(=O)=O)cc4)cc23)CC1)C1CCCC1 [Example 219, N-cyclopentyl-N-methyl-4-(5-(4-sulfamoylphenyl)-1H-pyrrolo[2,3-b]pyridin-3-yl)-5,6-dihydropyridine-1(2H)-carboxamide] | > 10000
16 | CC(C)(C)OC(=O)N1CC=C(c2c[nH]c3ncc(-c4ccc5c(c4)OCO5)cc23)CC1 [Example 160, tert-Butyl 4-(5-(benzo[d][1,3]dioxol-5-yl)-1H-pyrrolo[2,3-b]pyridin-3-yl)-5,6-dihydropyridine-1(2H)-carboxylate] | 2000
17 | O=C(NC1CCCC1)N1CC=C(c2c[nH]c3ncc(-c4ccc(C(=O)N5CCOCC5)s4)cc23)CC1 [Example 74, N-cyclopentyl-4-(5-(5-(morpholine-4-carbonyl)thiophen-2-yl)-1H-pyrrolo[2,3-b]pyridin-3-yl)-5,6-dihydropyridine-1(2H)-carboxamide] | 53
18 | COc1ccc(-c2cnc3[nH]cc(C4=CCN(C(=O)NC5CCCC5)CC4)c3c2)cc1OC [Example 49, N-cyclopentyl-4-(5-(3,4-dimethoxyphenyl)-1H-pyrrolo[2,3-b]pyridin-3-yl)-5,6-dihydropyridine-1(2H)-carboxamide] | 32
19 | CC(C)OC(=O)N1CC=C(c2c[nH]c3ncc(-c4cccc(S(N)(=O)=O)c4)cc23)CC1 [Example 146, Isopropyl 4-(5-(3-sulfamoylphenyl)-1H-pyrrolo[2,3-b]pyridin-3-yl)-5,6-dihydropyridine-1(2H)-carboxylate] | > 10000
20 | Cc1[nH]c2ncc(-c3ccc(S(N)(=O)=O)cc3)cc2c1C1=CCN(C(=O)NC2CCCC2)CC1 [Example 221, N-cyclopentyl-4-(2-methyl-5-(4-sulfamoylphenyl)-1H-pyrrolo[2,3-b]pyridin-3-yl)-5,6-dihydropyridine-1(2H)-carboxamide] | 2000
21 | CC(C)OC(=O)N1CC=C(c2c[nH]c3ncccc23)CC1 [Example 139, Isopropyl 4-(1H-pyrrolo[2,3-b]pyridin-3-yl)-5,6-dihydropyridine-1(2H)-carboxylate] | 320
22 | O=C(OC1CCCC1)N1CC=C(c2c[nH]c3ncc(-c4ccc(S(=O)(=O)C5CC5)cc4)cc23)CC1 [Example 175, Cyclopentyl 4-(5-(4-(cyclopropylsulfonyl)phenyl)-1H-pyrrolo[2,3-b]pyridin-3-yl)-5,6-dihydropyridine-1(2H)-carboxylate] | 350
23 | CC(C)(C)OC(=O)N1CC=C(c2c[nH]c3ncc(-c4ccc(C(=O)N5CCOCC5)cc4)cc23)CC1 [Example 155, tert-Butyl 4-(5-(4-(morpholine-4-carbonyl)phenyl)-1H-pyrrolo[2,3-b]pyridin-3-yl)-5,6-dihydropyridine-1(2H)-carboxylate] | 39
24 | CC1=C(c2c[nH]c3ncc(-c4ccc(CN5CCOCC5)s4)cc23)CCN(C(=O)NC2CCCC2)C1 [Example 131, N-cyclopentyl-3-methyl-4-(5-(5-(morpholinomethyl)thiophen-2-yl)-1H-pyrrolo[2,3-b]pyridin-3-yl)-5,6-dihydropyridine-1(2H)-carboxamide] | 220
25 | COc1ccc(-c2cnc3[nH]cc(C4=CCN(C(=O)NC5CCCC5)CC4C)c3c2)cc1OC (stereo not shown) [Example 120, N-cyclopentyl-4-(5-(3,4-dimethoxyphenyl)-1H-pyrrolo[2,3-b]pyridin-3-yl)-5-methyl-5,6-dihydropyridine-1(2H)-carboxamide] | 84
26 | O=C(c1cccs1)N1CC=C(c2c[nH]c3ncc(-c4cccc(S(=O)(=O)N5CCOCC5)c4)cc23)CC1 [Example 202, (4-(5-(3-(morpholinosulfonyl)phenyl)-1H-pyrrolo[2,3-b]pyridin-3-yl)-5,6-dihydropyridin-1(2H)-yl)(thiophen-2-yl)methanone] | 230
27 | CS(=O)(=O)c1cccc(-c2cnc3[nH]cc(C4=CCN(C(=O)c5cccs5)CC4)c3c2)c1 [Example 193, (4-(5-(3-(Methylsulfonyl)phenyl)-1H-pyrrolo[2,3-b]pyridin-3-yl)-5,6-dihydropyridin-1(2H)-yl)(thiophen-2-yl)methanone] | 36
28 | O=C(NC1CCCC1)N1CC=C(c2c[nH]c3ncc(-c4ccc(Cl)c(C(=O)N5CCOCC5)c4)cc23)CC1 [Example 76, 4-(5-(4-Chloro-3-(morpholine-4-carbonyl)phenyl)-1H-pyrrolo[2,3-b]pyridin-3-yl)-N-cyclopentyl-3,6-dihydropyridine-1(2H)-carboxamide 2,2,2-trifluoroacetate] | 290
